Laboratory results published in ChEMBL document CHEMBL1201862, “PubChem BioAssay data set” (2004).
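Grown in 96-well plates, cells were treated for 48 hours with each compound at five concentrations. Insufficient inhibition: endpoint recorded as highest concentration tested. GI50 is the concentration that inhibits growth by half.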 Active and inactive are the calls of the source. No stated cut-off is given here; in the data, active = GI50 up to about 1.1 µM and inactive = higher.

How the values were obtained:
Assay in all cases: inhibition of tumour cell growth, NCI panel, 48 h
CCRF-CEM = test system: CCRF-CEM
OVCAR-8 = test system: OVCAR-8
HOP-62 = test system: HOP-62
SF-295 = test system: SF-295
HT-29 = test system: HT-29
U-251 = test system: U-251
SK-OV-3 = test system: SK-OV-3
Hs-578T = test system: Hs-578T
SNB-75 = test system: SNB-75
UACC-62 = test system: UACC-62
OVCAR-3 = test system: OVCAR-3
M14 = test system: M14
NCI-H522 = test system: NCI-H522
HCT-116 = test system: HCT-116
HOP-92 = test system: HOP-92
ACHN = test system: ACHN
MDA-MB-231 = test system: MDA-MB-231
NCI-H460 = test system: NCI-H460
SF-539 = test system: SF-539
DU-145 = test system: DU-145

| Compound | GI50 (CCRF-CEM) | GI50 (OVCAR-8) | GI50 (HOP-62) | GI50 (SF-295) | GI50 (HT-29) | GI50 (U-251) | GI50 (SK-OV-3) | GI50 (Hs-578T) | GI50 (SNB-75) | GI50 (UACC-62) | GI50 (OVCAR-3) | GI50 (M14) | GI50 (NCI-H522) | GI50 (HCT-116) | GI50 (HOP-92) | GI50 (ACHN) | GI50 (MDA-MB-231) | GI50 (NCI-H460) | GI50 (SF-539) | GI50 (DU-145) |
| --- | --- | --- | --- | --- | --- | --- | --- | --- | --- | --- | --- | --- | --- | --- | --- | --- | --- | --- | --- | --- |
| CNC(=O)N(CCC#N)CCCN(C(=O)N(C)C)c1ccccc1 | > 100 µM (inactive) | > 100 µM (inactive) | > 100 µM (inactive) | > 100 µM (inactive) | > 100 µM (inactive) | > 100 µM (inactive) | > 100 µM (inactive) | > 100 µM (inactive) | > 100 µM (inactive) | > 100 µM (inactive) | > 100 µM (inactive) | > 100 µM (inactive) | > 100 µM (inactive) | > 100 µM (inactive) | > 100 µM (inactive) | > 100 µM (inactive) | > 100 µM (inactive) | > 100 µM (inactive) | > 100 µM (inactive) | > 100 µM (inactive) |
| O=C1Nc2nccnc2C(=O)N2CCC[C@@H]12 | > 100 µM (inactive) | > 100 µM (inactive) | > 100 µM (inactive) | > 100 µM (inactive) | > 100 µM (inactive) | > 100 µM (inactive) | > 100 µM (inactive) | > 100 µM (inactive) | > 100 µM (inactive) | > 100 µM (inactive) | > 100 µM (inactive) | > 100 µM (inactive) | > 100 µM (inactive) | > 100 µM (inactive) | > 100 µM (inactive) | > 100 µM (inactive) | > 100 µM (inactive) | > 100 µM (inactive) | > 100 µM (inactive) | > 100 µM (inactive) |
| O=[N+]([O-])c1cc(Cl)cc2c1nc(NCCO)c1ccccc12 | 16.7 µM (inactive) | 16.3 µM (inactive) | 7.24 µM (inactive) | 13.1 µM (inactive) | 0.063 µM (active) | 6.64 µM (inactive) | 29.1 µM (inactive) | 28.9 µM (inactive) | 20.4 µM (inactive) | 10.3 µM (inactive) | 12.1 µM (inactive) | 8.45 µM (inactive) | 13.6 µM (inactive) | 4.78 µM (inactive) | 15.6 µM (inactive) | 6.43 µM (inactive) | 21.1 µM (inactive) | 2.58 µM (inactive) | 20.9 µM (inactive) | 1.69 µM (inactive) |
| CN(CCC(=O)O)C1=Nc2ccc(Cl)cc2C(c2ccccc2)=[N+]([O-])C1 | > 100 µM (inactive) | > 100 µM (inactive) | > 100 µM (inactive) | > 100 µM (inactive) | > 100 µM (inactive) | > 100 µM (inactive) | > 100 µM (inactive) | > 100 µM (inactive) | > 100 µM (inactive) | > 100 µM (inactive) | > 100 µM (inactive) | > 100 µM (inactive) | > 100 µM (inactive) | > 100 µM (inactive) | > 100 µM (inactive) | > 100 µM (inactive) | > 100 µM (inactive) | > 100 µM (inactive) | > 100 µM (inactive) | > 100 µM (inactive) |
| O=C1c2cccc3cccc(c23)C(=O)N1CCCNCCCNCCCCNCCCNCCCN1C(=O)c2cccc3cccc(c23)C1=O | 0.479 µM (active) | 4.93 µM (inactive) | 3.79 µM (inactive) | 7.45 µM (inactive) | 1.39 µM (inactive) | 1.84 µM (inactive) | 12.9 µM (inactive) | 1.68 µM (inactive) | 2.52 µM (inactive) | 2.82 µM (inactive) | 4.67 µM (inactive) | 4.06 µM (inactive) | 0.789 µM (active) | 1.67 µM (inactive) | 5.05 µM (inactive) | 3.97 µM (inactive) | 3.78 µM (inactive) | 1.9 µM (inactive) | 3.52 µM (inactive) | 3.66 µM (inactive) |
| C(=C\c1cc[n+](CCc2ccccc2)cc1)/c1ccccc1 | 13.4 µM (inactive) | 3.86 µM (inactive) | 12.6 µM (inactive) | 24.9 µM (inactive) | 6.79 µM (inactive) | 4.9 µM (inactive) | 18.6 µM (inactive) | 15.2 µM (inactive) | 24 µM (inactive) | 10.7 µM (inactive) | 5.26 µM (inactive) | 7.91 µM (inactive) | 14.7 µM (inactive) | 11.3 µM (inactive) | 24.7 µM (inactive) | 26.9 µM (inactive) | 12.6 µM (inactive) | 8.69 µM (inactive) | 20.4 µM (inactive) | 27 µM (inactive) |
| O=C(O)c1c(-c2nccc3ccccc23)[nH]c(-c2ccccc2)c1S(=O)(=O)O | > 100 µM (inactive) | > 100 µM (inactive) | > 100 µM (inactive) | > 100 µM (inactive) | > 100 µM (inactive) | > 100 µM (inactive) | > 100 µM (inactive) | > 100 µM (inactive) | > 100 µM (inactive) | > 100 µM (inactive) | > 100 µM (inactive) | > 100 µM (inactive) | > 100 µM (inactive) | > 100 µM (inactive) | > 100 µM (inactive) | > 100 µM (inactive) | > 100 µM (inactive) | > 100 µM (inactive) | > 100 µM (inactive) | > 100 µM (inactive) |
| Cc1ccc2c(/C=C/c3ccc(N(C)C)cc3)ccnc2c1C | 32.9 µM (inactive) | 24.7 µM (inactive) | 30.8 µM (inactive) | 22.4 µM (inactive) | 16.6 µM (inactive) | 38.7 µM (inactive) | 31.1 µM (inactive) | 43.2 µM (inactive) | 15.4 µM (inactive) | 13.4 µM (inactive) | 32.4 µM (inactive) | 51.4 µM (inactive) | 19.1 µM (inactive) | 25.2 µM (inactive) | 15.1 µM (inactive) | 25.8 µM (inactive) | 16.6 µM (inactive) | 25.6 µM (inactive) | 32.2 µM (inactive) | 48 µM (inactive) |
| CCOC(=O)C1=C(C)NC(C)=C(C(=O)OCC)C1c1ccc(Cl)cc1 | 1.43 µM (inactive) | 16.1 µM (inactive) | 14.8 µM (inactive) | 12.7 µM (inactive) | 10.9 µM (inactive) | 16.8 µM (inactive) | 16.7 µM (inactive) | 19.6 µM (inactive) | 18.7 µM (inactive) | 12.1 µM (inactive) | 15.8 µM (inactive) | 16.6 µM (inactive) | 16 µM (inactive) | 9.14 µM (inactive) | 10.3 µM (inactive) | 16 µM (inactive) | 15.3 µM (inactive) | 4.6 µM (inactive) | 18.8 µM (inactive) | 17.3 µM (inactive) |
| c1ccc2c(c1)CCN(C1=NCCO1)C2 | > 10 µM (inactive) | > 10 µM (inactive) | > 10 µM (inactive) | > 10 µM (inactive) | > 10 µM (inactive) | > 10 µM (inactive) | > 10 µM (inactive) | > 10 µM (inactive) | > 10 µM (inactive) | > 10 µM (inactive) | > 10 µM (inactive) | > 10 µM (inactive) | > 10 µM (inactive) | > 10 µM (inactive) | > 10 µM (inactive) | > 10 µM (inactive) | > 10 µM (inactive) | > 10 µM (inactive) | > 10 µM (inactive) | > 10 µM (inactive) |
| COc1ccc(C2c3c(-c4ccccc4)nn(-c4ccccc4)c3Oc3ncn(N)c(=N)c32)cc1OC (stereo not given) | 2.56 µM (inactive) | 2.1 µM (inactive) | 1.77 µM (inactive) | 2.05 µM (inactive) | 1.93 µM (inactive) | 4.53 µM (inactive) | 6.53 µM (inactive) | 1.97 µM (inactive) | 1.62 µM (inactive) | 1.92 µM (inactive) | 1.63 µM (inactive) | 2.04 µM (inactive) | 2.21 µM (inactive) | 1.67 µM (inactive) | 2.33 µM (inactive) | 1.86 µM (inactive) | 1.71 µM (inactive) | 1.71 µM (inactive) | 1.69 µM (inactive) | 2.89 µM (inactive) |
| CCCN(CCCC(NC(C)=O)C(=O)NCc1ccccc1)C(=O)N(CCCl)N=O (stereo not given) | 6.87 µM (inactive) | 10.4 µM (inactive) | 2.73 µM (inactive) | 2.66 µM (inactive) | 30.5 µM (inactive) | 3.53 µM (inactive) | 25.7 µM (inactive) | > 100 µM (inactive) | 5.58 µM (inactive) | 1.04 µM (active) | 20.9 µM (inactive) | 14.4 µM (inactive) | 20.7 µM (inactive) | 22.6 µM (inactive) | 17.1 µM (inactive) | 3.09 µM (inactive) | > 100 µM (inactive) | 0.27 µM (active) | 0.977 µM (active) | > 100 µM (inactive) |
| COC(=O)C1(Cc2ccc3c(c2)CCC3)Cc2cc3c(cc2C1)CCC3 | 19.3 µM (inactive) | 54.2 µM (inactive) | > 100 µM (inactive) | 33.3 µM (inactive) | 22.5 µM (inactive) | 37.4 µM (inactive) | > 100 µM (inactive) | 65.6 µM (inactive) | 46.6 µM (inactive) | 71.3 µM (inactive) | 45.6 µM (inactive) | 35.2 µM (inactive) | 22.1 µM (inactive) | 35.1 µM (inactive) | 25.8 µM (inactive) | 38.3 µM (inactive) | 22.9 µM (inactive) | 35 µM (inactive) | > 100 µM (inactive) | 71.4 µM (inactive) |
| N#C/C(=C1C=C(Br)/C(=N\O)C=C\1Cl)c1cccc2ccccc12 | 2.62 µM (inactive) | 6.37 µM (inactive) | 10.3 µM (inactive) | 3.12 µM (inactive) | 2.26 µM (inactive) | 2.96 µM (inactive) | 5.33 µM (inactive) | 3.55 µM (inactive) | 0.121 µM (active) | 4.12 µM (inactive) | 2.76 µM (inactive) | 2.77 µM (inactive) | 2.52 µM (inactive) | 4 µM (inactive) | 8.57 µM (inactive) | 11 µM (inactive) | 4.32 µM (inactive) | 5.16 µM (inactive) | 1.96 µM (inactive) | 3.31 µM (inactive) |
